# Reference: patent publication US8466145B2, “Dipeptidyl peptidase IV inhibitors” (Orchid Chemicals & Pharmaceuticals Limited, priority 2009, dated 2013)
# Counter-ions that a name gives are not always drawn.
# Tested on: not given
# Test: not given
# Settings: not given
row,melting point [°C],Structure (SMILES)
1,154 to 157,"CC1(C)[C@H](CNS(C)(=O)=O)CC[C@]1(C)NCC(=O)N1C[C@@H](F)C[C@H]1C#N [Example 18, N-(((1R,3S)-3-(2-((2S,4S)-2-Cyano-4-fluoropyrrolidin-1-yl)-2-oxoethylamino)-2,2,3-trimethylcyclopentyl)methyl)methanesulfonamide]"
2,210 to 214,"CC1(C)[C@@H](Cn2cnnn2)CC[C@@]1(C)NCC(=O)N1C[C@@H](F)C[C@H]1C#N (as salt: methanesulfonate) [Example 31, (2S,4S)-1-(2-((1R,3S)-3-((1H-Tetrazol-1-yl)methyl)-1,2,2-trimethylcyclopentylamino)acetyl)-4-fluoropyrrolidine-2-carbonitrile methanesulfonate]"
3,141 to 144,"CN1C(=O)[C@]2(C)CC[C@](NCC(=O)N3CCC[C@H]3C#N)(C1=O)C2(C)C [Example 75, (S)-1-(2-((1R,5R)-3,5,8,8-Tetramethyl-2,4-dioxo-3-azabicyclo[3.2.1]octan-1-ylamino)acetyl)pyrrolidine-2-carbonitrile]"
4,206 to 211,"CC1(C)[C@@H](NCC(=O)N2CCC[C@H]2C#N)CC[C@@]1(C)c1nc(-c2ccc(F)cc2)no1 (as salt: methanesulfonate) [Example 66, (S)-1-(2-((1S,3R)-3-(3-(4-Fluorophenyl)-1,2,4-oxadiazol-5-yl)-2,2,3-trimethylcyclopentylamino)acetyl)pyrrolidine-2-carbonitrile methanesulfonate]"
5,163 to 166,"CC1(C)[C@@H](CS(=O)(=O)c2ccc(S(C)(=O)=O)cc2)CC[C@@]1(C)NCC(=O)N1C[C@H](F)C[C@H]1C#N [Example 43, (2S,4R)-4-Fluoro-1-(2-((1R,3S)-1,2,2-trimethyl-3-((4-(methylsulfonyl)phenylsulfonyl)methyl)cyclopentylamino)acetyl)pyrrolidine-2-carbonitrile]"
6,174 to 177,"CC1(C)[C@@]2(C)CC[C@]1(NCC(=O)N1CCC[C@H]1C#N)C(=O)OC2 [Example 79, (S)-1-(2-((1R,5R)-5,8,8-Trimethyl-2-oxo-3-oxabicyclo[3.2.1]octan-1-ylamino)acetyl)pyrrolidine-2-carbonitrile]"
7,150 to 155,"CC1(C)[C@@H](Cn2cncn2)CC[C@@]1(C)NCC(=O)N1CCC[C@H]1C#N (as salt: methanesulfonate) [Example 9, (S)-1-(2-((1R,3S)-3-((1H-1,2,4-Triazol-1-yl)methyl)-1,2,2-trimethylcyclopentylamino)acetyl)pyrrolidine-2-carbonitrilemethanesulfonate]"

# Biological target: T1, human recombinant Dipeptidyl peptidase IV enzyme (hrDPP IV) (Homo sapiens, UniProt P27487)
# T1 construct: purchased R&D systems
# T1 sequence (P27487 whole entry): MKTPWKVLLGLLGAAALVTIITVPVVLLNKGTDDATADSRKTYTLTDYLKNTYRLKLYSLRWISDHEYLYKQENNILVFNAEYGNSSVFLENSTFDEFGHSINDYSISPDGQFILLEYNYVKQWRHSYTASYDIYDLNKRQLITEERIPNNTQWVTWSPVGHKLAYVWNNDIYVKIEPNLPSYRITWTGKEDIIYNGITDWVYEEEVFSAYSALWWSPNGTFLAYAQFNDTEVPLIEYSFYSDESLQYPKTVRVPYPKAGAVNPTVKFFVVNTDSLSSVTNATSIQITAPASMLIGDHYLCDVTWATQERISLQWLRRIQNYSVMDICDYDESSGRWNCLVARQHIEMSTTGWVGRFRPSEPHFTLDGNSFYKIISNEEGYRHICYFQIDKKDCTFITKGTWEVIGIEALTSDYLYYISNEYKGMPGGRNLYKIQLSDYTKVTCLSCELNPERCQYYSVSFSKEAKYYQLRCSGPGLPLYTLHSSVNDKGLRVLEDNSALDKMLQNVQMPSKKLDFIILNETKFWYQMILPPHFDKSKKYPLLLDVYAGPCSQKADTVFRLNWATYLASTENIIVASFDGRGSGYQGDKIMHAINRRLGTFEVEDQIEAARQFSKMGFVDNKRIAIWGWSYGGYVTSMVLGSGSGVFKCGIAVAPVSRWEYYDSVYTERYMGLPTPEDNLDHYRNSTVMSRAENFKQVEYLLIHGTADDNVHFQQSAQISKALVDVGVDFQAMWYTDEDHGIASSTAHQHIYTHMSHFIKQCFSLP
# Test: DPP IV assay, cleavage of H-Gly-Pro-AMC by human recombinant DPP-IV enzyme
# Type: biochemical
# Settings: not given
# Procedure: DPP IV activity was determined by the cleavage rate of 7-amino 4-methylcoumarin (AMC) from the substrate H-Gly-Pro-AMC. In brief, the assay was conducted by adding 3 ng of human recombinant Dipeptidyl peptidase IV enzyme (hrDPP IV, available commercially from R&D systems) in 70 μL of the assay buffer (25 mM HEPES, 140 mM NaCl and 1% BSA, pH 7.8) to a 96 well black flat bottom microtitre plate. Test compounds were added as 10 μL additions to all wells except blank and total activity wells. After incubation of test substance with enzyme for 60 minutes at room temperature, 10 μL of 100 μM substrate H-Gly-Pro-AMC was added. After mixing, the plate was left for 20 minutes at room temperature. Then the reaction was terminated by addition of 10 μL of 25% glacial acetic acid. Fluorescence was measured using Spectra Max Gemini XS (Molecular Devices, USA) at an excitation filter of 360 nm and emission filter of 460 nm.
# Test compounds dissolved in DMSO were diluted with assay buffer at different concentrations and tested in duplicates. Percentage inhibition was calculated with respect to total activity. IC50 value was calculated using Prism Software.
row,IC50 [nM],Structure (SMILES)
1,250,"CC1(C)[C@@H](CN2CCOCC2)CC[C@@]1(C)NCC(=O)N1C[C@@H](F)C[C@H]1C#N [Example 33, (2S,4S)-4-Fluoro-1-(2-((1R,3S)-1,2,2-trimethyl-3-(morpholinomethyl)cyclopentylamino)acetyl)pyrrolidine-2-carbonitrile]"
2,781 ± 91.6,"CC1(C)[C@@H](Cn2cncn2)CC[C@@]1(C)NCC(=O)N1CCC[C@H]1C#N [Example 9, (S)-1-(2-((1R,3S)-3-((1H-1,2,4-Triazol-1-yl)methyl)-1,2,2-trimethylcyclopentylamino)acetyl)pyrrolidine-2-carbonitrilemethanesulfonate]"
3,264,"CC1(C)[C@@H](Cn2cnnn2)CC[C@@]1(C)NCC(=O)N1C[C@@H](F)C[C@H]1C#N [Example 31, (2S,4S)-1-(2-((1R,3S)-3-((1H-Tetrazol-1-yl)methyl)-1,2,2-trimethylcyclopentylamino)acetyl)-4-fluoropyrrolidine-2-carbonitrile methanesulfonate]"
4,99.8,"CC1(C)[C@H](Cn2cncn2)CC[C@]1(C)NCC(=O)N1CCC[C@H]1C#N [Example 7, (S)-1-(2-((1S,3R)-3-((1H-1,2,4-Triazol-1-yl)methyl)-1,2,2-trimethylcyclopentylamino)acetyl)pyrrolidine-2-carbonitrile methanesulfonate]"
5,27.8,"CC1(C)[C@H](Cn2ccnn2)CC[C@]1(C)NCC(=O)N1C[C@@H](F)C[C@H]1C#N [Example 13, (2S,4S)-1-(2-((1S,3R)-3-((1H-1,2,3-Triazol-1-yl)methyl)-1,2,2-trimethylcyclopentylamino)acetyl)-4-fluoropyrrolidine-2-carbonitrilemethane sulfonate]"
6,29.4,"CC1(C)[C@H](CNc2ccc(C#N)cn2)CC[C@]1(C)NCC(=O)N1C[C@@H](F)C[C@H]1C#N [Example 25, 6-(((1R,3S)-3-(2-((2S,4S)-2-Cyano-4-fluoropyrrolidin-1-yl)-2-oxoethylamino)-2,2,3-trimethylcyclopentyl)methylamino)nicotinonitrile]"
7,232,"CC1(C)[C@@H](Cn2ccnn2)CC[C@@]1(C)NCC(=O)N1C[C@@H](F)C[C@H]1C#N [Example 11, (2S,4S)-1-(2-((1R,3S)-3-((1H-1,2,3-Triazol-1-yl)methyl)-1,2,2-trimethylcyclopentylamino)acetyl)-4-fluoropyrrolidine-2-carbonitrile]"
8,123,"CC1(C)[C@H](Cn2cncn2)CC[C@]1(C)NCC(=O)N1CCC[C@H]1C#N [Example 6, (S)-1-(2-((1S,3R)-3-((1H-1,2,4-Triazol-1-yl)methyl)-1,2,2-trimethylcyclopentylamino)acetyl)pyrrolidine-2-carbonitrile]"
9,134,"CC1(C)[C@@H](CNc2ccc(C#N)cn2)CC[C@@]1(C)NCC(=O)N1C[C@@H](F)C[C@H]1C#N [Example 24, 6-(((1S,3R)-3-(2-((2S,4S)-2-Cyano-4-fluoropyrrolidin-1-yl)-2-oxoethylamino)-2,2,3-trimethylcyclopentyl)methylamino)nicotinonitrile]"
10,304.8 ± 2.1,"CC1(C)[C@@H](CNS(=O)(=O)c2ccc(F)cc2)CC[C@@]1(C)NCC(=O)N1C[C@@H](F)C[C@H]1C#N [Example 19, N-(((1S,3R)-3-(2-((2S,4S)-2-Cyano-4-fluoropyrrolidin-1-yl)-2-oxoethylamino)-2,2,3-trimethylcyclopentyl)methyl)-4-fluorobenzenesulfonamide]"
11,1170 ± 0.14,"CC1(C)[C@@H](Cn2cncn2)CC[C@@]1(C)NCC(=O)N1CCC[C@H]1C#N [Example 8, (S)-1-(2-((1R,3S)-3-((1H-1,2,4-Triazol-1-yl)methyl)-1,2,2-trimethyleyclopentylamino)acetyl)pyrrolidine-2-carbonitrile]"

# Same assay, conditions: 300 nM compound concentration
row,inhibition at 0.3 µM [%],Structure (SMILES)
1,84.9,"CC1(C)[C@H](CNS(C)(=O)=O)CC[C@]1(C)NCC(=O)N1C[C@@H](F)C[C@H]1C#N [Example 18, N-(((1R,3S)-3-(2-((2S,4S)-2-Cyano-4-fluoropyrrolidin-1-yl)-2-oxoethylamino)-2,2,3-trimethylcyclopentyl)methyl)methanesulfonamide]"
2,46.6,"CC1(C)[C@@H](CNS(C)(=O)=O)CC[C@@]1(C)NCC(=O)N1C[C@@H](F)C[C@H]1C#N [Example 17, N-(((1S,3R)-3-(2-((2S,4S)-2-Cyano-4-fluoropyrrolidin-1-yl)-2-oxoethylamino)-2,2,3-trimethylcyclopentyl)methyl)methanesulfonamide]"
3,73.2,"CC1(C)[C@@H](C(=O)N2CCCCC2)CC[C@@]1(C)NCC(=O)N1C[C@@H](F)C[C@H]1C#N [Example 14, (2S,4S)-4-Fluoro-1-(2-((1R,3S)-1,2,2-trimethyl-3-(piperidine-1-carbonyl)cyclopentylamino)acetyl)pyrrolidine-2-carbonitrile]"
4,56.5,"CC1(C)[C@@H](CC#N)CC[C@@]1(C)NCC(=O)N1C[C@@H](F)C[C@H]1C#N [Example 53, (2S,4S)-1-(2-((1R,3R)-3-(Cyanomethyl)-1,2,2-trimethylcyclopentylamino)acetyl)-4-fluoropyrrolidine-2-carbonitrile]"
5,84.7,"CC1(C)[C@H](CN2CCCCC2)CC[C@]1(C)NCC(=O)N1C[C@@H](F)C[C@H]1C#N [Example 40, (2S,4S)-4-Fluoro-1-(2-((1S,3R)-1,2,2-trimethyl-3-(piperidin-1-ylmethyl)cyclopentylamino)acetyl)pyrrolidine-2-carbonitrile]"
6,26.1,"CC1(C)[C@@H](CN2CCC(O)CC2)CC[C@@]1(C)NCC(=O)N1C[C@@H](F)C[C@H]1C#N [Example 41, (2S,4S)-4-Fluoro-1-(2-((1R,3S)-3-((4-hydroxypiperidin-1-yl)methyl)1,2,2-trimethylcyclopentylamino)acetyl)pyrrolidine-2-carbonitrile]"
7,2.28,"CC1(C)[C@@]2(C)CC[C@]1(NCC(=O)N1CCC[C@H]1C#N)COC2 [Example 80, (S)-1-(2-((1R,5R)-5,8,8-Trimethyl-3-oxabicyclo[3.2.1]octan-1-ylamino)acetyl)pyrrolidine-2-carbonitrile]"
8,23.3,"CN1C[C@]2(C)CC[C@](NCC(=O)N3CCC[C@H]3C#N)(C1)C2(C)C [Example 78, (S)-1-(2-((1R,5R)-3,5,8,8-Tetramethyl-3-azabicyclo[3.2.1]octan-1-ylamino)acetyl)pyrrolidine-2-carbonitrile]"
9,22.4,"CC1(C)[C@]2(C)CC[C@@]1(NCC(=O)N1C[C@@H](F)C[C@H]1C#N)COC2 [Example 82, (2S,4S)-4-Fluoro-1-(2-((1S,5S)-5,8,8-trimethyl-3-oxabicyclo[3.2.1]octan-1-ylamino)acetyl)pyrrolidine-2-carbonitrile]"
10,21.3,"CC1(C)[C@@]2(C)CC[C@]1(NCC(=O)N1C[C@@H](F)C[C@H]1C#N)COC2 [Example 81, (2S,4S)-4-Fluoro-1-(2-((1R,5R)-5,8,8-trimethyl-3-oxabicyclo[3.2.1]octan-1-ylamino)acetyl)pyrrolidine-2-carbonitrile]"
